Assay results from patent US20150126448A1 (Genentech, Inc., priority 2003, published 2015).

Legend:
BxPC3 cells [1] = test: Inhibition of HGF-dependent cell proliferation in BxPC3 cells; assay type: cell-based, human; settings: 5 μg/ml test protein, 25 ng/ml HGF WT; for inhibition of HGF-dependent cell proliferation activity (% activity II): normalized to 5 μg/ml mutant alone (0%) and 25 ng/ml HGF WT (100%); for inhibition of HGF-dependent cell proliferation activity (% activity I): normalized to no HGF (0%) and 25 ng/ml HGF WT (100%)
Method: BxPC3 (human pancreatic adeocarcinoma; ECACC No. 93120816) were obtained from the European Collection of Cell Cultures (CAMR Centre for Applied Microbiology and Research, Porton Down, Salisbury, Wiltshire (UK) and were used in an HGF-dependent proliferation assay. Cells were grown in RPMI medium containing 10% FCS (Sigma F-6178, St. Louis, Mo.), 10 mM HEPES, 2 mM glutamine, 1× Penicillin-Streptomycin (Invitrogen 15140-122, Carlsbad, Calif.), 100× penicillin 10000 μg/ml-streptomycin 10000 mg/ml), and G418 (Invitrogen 10131-035) at 250 mg/ml. The cells were sequentially washed with PBS, PBS containing 10 mM EDTA, then removed using trypsin. The cells were harvested into serum containing media and the cell density was determined using a hemacytometer. Cells at 50000-75000/ml were seeded at 200 μl per well into a white bottom MT plate (Cultur Plate™ 6005680 Packard/PerkinElmer, Boston, Mass.) using the inside 60 wells only and allowed to grow for 24 h. The media was removed, the cells were washed with PBS and 200 ml of serum-free media containing 0.1% BSA (SF-BSA) was added back to the cells. The cells were grown for an additional 24 h. […] Controls were run in the absence of HGF and/or in the absence of test HGF proteins.
The cells were allowed to grow for 72 h and then assayed using the CellTiter-Glo Luminescent Kit (Promega G7571, Madison, Wis.). The procedure followed is described in Promega Technical Bulletin TB288. The microtiter plate was read on a Tropix TR717 microplate luminometer (Berthold 75323 Bad Wildbad, Germany). The percent of stimulation or inhibition of cell proliferation was normalized to the appropriate controls.

MDA-MB-435 cells = test: MDA-MB-435 cell migration transwell assay; assay type: cell-based
Method: (A) Representative purity of HGF mutants. […] Incomplete conversion of the secreted single-chain form by CHO expression in 1% FBS (v/v) is shown in lane 1. […] Molecular weight markers are shown as Mr×10^3. […] Values represent the averages of 4-8 independent experiments±SD.
Breast cancer cells MDA-MB-435 (HTB-129, ATCC, Manassas, Va.) were cultured in recommended serum-supplemented medium. Confluent cells were detached in PBS containing 10 mM EDTA and diluted with serum-free medium to a final concentration of 0.6−0.8×10^5 cells/ml. 0.2 ml of this suspension ([…]) was added in triplicate to the upper chambers of 24-well transwell plates (8 μm pore size) (HTS Multiwell™ Insert System, Falcon, Franklin Lakes, N.J.) pre-coated with 10 μg/ml of rat tail collagen Type I (Upstate, Lake Placid, N.Y.). […] After incubation for 13-14 h, cells on the apical side of the membrane were removed and those that migrated to the basal side were fixed in 4% paraformaldehyde followed by staining with a 0.5% crystal violet solution. After washing and airdrying, cells were solubilized in 10% acetic acid and the A560 was measured on a Molecular Devices microplate reader. […] Photographs of stained cells were taken with a Spot digital camera (Diagnostics Instruments, Inc., Sterling Heights, Mich.) connected to a Leitz microscope (Leica Mikroskope & Systeme GmbH, Wetzlar, Germany). […]

BxPC3 cells [2] = test: HGF-dependent proliferation assay in BxPC3 cells (stimulation); assay type: cell-based, human; settings: n=12
Method: BxPC3 (human pancreatic adeocarcinoma; ECACC No. 93120816) were obtained from the European Collection of Cell Cultures (CAMR Centre for Applied Microbiology and Research, Porton Down, Salisbury, Wiltshire (UK) and were used in an HGF-dependent proliferation assay. Cells were grown in RPMI medium containing 10% FCS (Sigma F-6178, St. Louis, Mo.), 10 mM HEPES, 2 mM glutamine, 1× Penicillin-Streptomycin (Invitrogen 15140-122, Carlsbad, Calif.), 100× penicillin 10000 μg/ml-streptomycin 10000 mg/ml), and G418 (Invitrogen 10131-035) at 250 mg/ml. The cells were sequentially washed with PBS, PBS containing 10 mM EDTA, then removed using trypsin. The cells were harvested into serum containing media and the cell density was determined using a hemacytometer. Cells at 50000-75000/ml were seeded at 200 μl per well into a white bottom MT plate (Cultur Plate™ 6005680 Packard/PerkinElmer, Boston, Mass.) using the inside 60 wells only and allowed to grow for 24 h. The media was removed, the cells were washed with PBS and 200 ml of serum-free media containing 0.1% BSA (SF-BSA) was added back to the cells. The cells were grown for an additional 24 h. […]
The cells were allowed to grow for 72 h and then assayed using the CellTiter-Glo Luminescent Kit (Promega G7571, Madison, Wis.). […] The microtiter plate was read on a Tropix TR717 microplate luminometer (Berthold 75323 Bad Wildbad, Germany). […]

Met-IgG fusion protein = Met-IgG fusion protein (UniProt P08581); test: HGF/Met-IgG competition binding ELISA; competitor: 1 nM biotinylated HGF

Substance | inhibition of HGF-dependent cell proliferation activity (% activity II) (BxPC3 cells [1]) | inhibition of HGF-dependent cell proliferation activity (% activity I) (BxPC3 cells [1]) | other results
HGF R695A: full length two-chain HGF with R695A mutation in the β-chain | 68% | 79% | –
HGF β: HGF β-chain residues Val495 to Ser728 with Cys604 to Ser mutation and C-terminal His6 tag | – | – | effect in cell migration assay (MDA-MB-435 cells; concentrations of up to 0.95 μM): had no effect
HGF: wild type hepatocyte growth factor, disulfide-linked two-chain α/β heterodimer, recombinant from CHO cells | – | – | proliferation activity at 25 ng/ml as % of the activity at 100 ng/ml (BxPC3 cells [2]): 83.6±13.0%
K641A [c173] (ligand) | – | – | IC50mut/IC50WT (Met-IgG fusion protein): 1.04
proHGF: uncleavable single chain form of HGF with amino acid changes R494E and R424A | 75% | 63% | stimulation of cell migration (MDA-MB-435 cells; 1 nM, MDA-MB435 cells, FIG. 2B, 2C): did not stimulate cell migration
